Source: PubChem BioAssay AID2060884 (Molecular Pharmacology Branch, DTP, NCI, 2025)

System: NCI-H929 complex spheroids, viability % test/control
Assay: Anticancer human tumor NCI-H929 cell line growth inhibition [RAS];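 also: compound exposure lasted seven days before viability was read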
Details: for IC50: curve of first compound; for viability, T/C: stronger effect = lower value
Source text: RAS pathway inhibitors in Combinations in Complex Spheroids
A high-throughput screen of multi-cell type tumor spheroids was designed to identify active combinations of RAS pathway inhibitors and targeted small molecules. Complex spheroids include a stromal component modeled by human endothelial cells (HUVEC) and fibroblasts modeled by human mesenchymal stem cells (MSCs). The concentration ranges selected for each drug and investigational agent were based upon clinically achievable concentrations if the clinical Cmax of the agent was known.
Compounds. The drugs and investigational agents: abemaciclib (NSC768073), cobimetinib (NSC768068), divarasib (GDC6063, NSC841802), docetaxel (NSC628503), GDC-1971 (RLY-1971, NSC841576), gemcitabine (NSC613327), inavolisib (NSC800729), ipatasertib (NSC767898), KB-0742 (NSC834161), MRTX-1133 (NSC836407), osimertinib (NSC779217), RMC-4630 (NSC839698), RMC-6236 (NSC851965), RMC-6291 (NSC852671), Ro-3306 (NSC812927), sapanisertib (NSC764658), SN-38 (NSC673596), staurosporine (NSC755774), SY5609 (NSC837396), and tovorafenib (DAY101, NSC766906), were obtained from the National Cancer Institute (NCI) Developmental Therapeutics Program Chemical Repository. The FDA-approved anticancer drug set is available from the NCI Developmental Therapeutics Program. […] The stock solutions were prepared in dimethyl sulfoxide (DMSO, Sigma-Aldrich, St. Louis, MO, cat. D2650) at 800-fold the tested concentration and stored at -70 degrees C prior to their use. All drugs and investigational agents were tested over a range starting from a high concentration at or near the clinical Cmax and decreasing in half-log increments. If the clinical Cmax for an agent had not been determined, the highest concentration tested was 10 microM.
Cell Culture. All cells were maintained in an incubator at 37 degrees C and 5% CO2 with 95% humidity. The PDC lines were cultured according to standard operating procedures established by the NCI PDMR. All PDCs were thawed and cultured in Matrigel-coated flasks prepared with a working solution of 1X Ham's F-12 nutrient mix, without supplementation (Invitrogen, Waltham, MA, cat. 11765054), 100 U/mL penicillin-streptomycin (Invitrogen, cat. 15140122), and 2.5% Matrigel (Corning Inc., Corning, NY, cat. 354248) for the first three passages. The 362531-283-R-J2-PDC and 782815-120-R-J1-PDC lines were cultured in 6C/Colon 1B media, which includes advanced DMEM/F-12 (Thermo Fisher Scientific, cat. 12634028), 10 mM HEPES (Thermo Fisher Scientific, cat. 15630080), 1X GlutaMAX supplement (Thermo Fisher Scientific, cat. 35050061), 0.1 mg/mL primocin (InvivoGen, San Diego, CA, cat. ant-pm-2), 10% defined fetal bovine serum, heat inactivated (HyClone Laboratories Inc., Logan, UT, cat. SH30070.03HI), 50% L-WRN conditioned media (ATCC, cat. CRL-3276), 1.25 mM N-Acetyl-L-cysteine (Sigma-Aldrich, cat. A9165), 10 mM nicotinamide (Sigma-Aldrich, cat. N0636), 1X B-27 supplement (Thermo Fisher Scientific, cat. 17504044), 1X N-2 supplement (Thermo Fisher Scientific, cat. 17502048), 50 ng/mL human EGF (Thermo Fisher Scientific, cat. PHG0311), and 10 microM Y-27632 dihydrochloride (Tocris Bioscience, cat. 1254). The K12877-001-R-J1-PDC line was cultured in 6I media, which includes all 6C/Colon 1B media plus 10 ng/mL human FGF-10 (PeproTech, cat. 100-26), 1 ng/mL human FGF-2 (PeproTech, cat. 100-18B), 1 µM prostaglandin E2 (Tocris Bioscience, cat. 2296), […] hydrocortisone (Sigma-Aldrich, cat. H4001), and […] bovine insulin (Sigma-Aldrich, cat. I6634). The K86415-001-R-J1-PDC line was cultured in 6D media, which includes all 6C/Colon 1B media components minus the L-WRN conditioned media. The 485176-168-R4-J1-PDC was cultured in PANC media, which includes all 6C/Colon 1B media plus 100 ng/mL human FGF-10 (PeproTech, cat. 100-26), 500 nM SB-431542 (Selleckchem, cat. S1067), and 10 nM gastrin (Tocris Bioscience, cat. 3006). […]

SMILES: CCC(CC)c1cc(NC2CCC(N)C2)n2nccc2n1 (configuration not stated) + CCn1c(-c2cccnc2C(C)OC)c2c3cc(ccc31)N1CCOC(CC(NC(=O)C(C(C)C)N(C)C(=O)C3(F)CCN(C(=O)C#CC(C)(C)N(C)C)CC3)C(=O)N3CCCC(N3)C(=O)OCC(C)(C)C2)C1
- IC50 (second compound 0.000949 µM): 1540 nM
- IC50 (second compound 0.003 µM): 1570 nM
- IC50 (second compound 0.00949 µM): 1540 nM
- IC50 (second compound 0.03 µM): 1340 nM
- IC50 (second compound 0.0949 µM): 1400 nM
- IC50 (second compound 0.3 µM): 1110 nM
- viability, T/C (second compound 0.000949 µM, first compound 0.0316 µM): 102%
- viability, T/C (second compound 0.000949 µM, first compound 0.1 µM): 92.6%
- viability, T/C (second compound 0.000949 µM, first compound 0.316 µM): 92.5%
- viability, T/C (second compound 0.000949 µM, first compound 1 µM): 79.5%
- viability, T/C (second compound 0.000949 µM, first compound 3.16 µM): 0.2%
- viability, T/C (second compound 0.000949 µM, first compound 10 µM): 0.2%
- viability, T/C (second compound 0.003 µM, first compound 0.0316 µM): 100%
- viability, T/C (second compound 0.003 µM, first compound 0.1 µM): 98.8%
- viability, T/C (second compound 0.003 µM, first compound 0.316 µM): 93.5%
- viability, T/C (second compound 0.003 µM, first compound 1 µM): 82.1%
- viability, T/C (second compound 0.003 µM, first compound 3.16 µM): 0.2%
- viability, T/C (second compound 0.003 µM, first compound 10 µM): 0.19%
- viability, T/C (second compound 0.00949 µM, first compound 0.0316 µM): 102%
- viability, T/C (second compound 0.00949 µM, first compound 0.1 µM): 96.5%
- viability, T/C (second compound 0.00949 µM, first compound 0.316 µM): 92.5%
- viability, T/C (second compound 0.00949 µM, first compound 1 µM): 80.1%
- viability, T/C (second compound 0.00949 µM, first compound 3.16 µM): 0.2%
- viability, T/C (second compound 0.00949 µM, first compound 10 µM): 0.18%
- viability, T/C (second compound 0.03 µM, first compound 0.0316 µM): 97.3%
- viability, T/C (second compound 0.03 µM, first compound 0.1 µM): 93.8%
- viability, T/C (second compound 0.03 µM, first compound 0.316 µM): 93.5%
- viability, T/C (second compound 0.03 µM, first compound 1 µM): 67%
- viability, T/C (second compound 0.03 µM, first compound 3.16 µM): 0.19%
- viability, T/C (second compound 0.03 µM, first compound 10 µM): 0.2%
- viability, T/C (second compound 0.0949 µM, first compound 0.0316 µM): 98.1%
- viability, T/C (second compound 0.0949 µM, first compound 0.1 µM): 96.4%
- viability, T/C (second compound 0.0949 µM, first compound 0.316 µM): 89.2%
- viability, T/C (second compound 0.0949 µM, first compound 1 µM): 70.4%
- viability, T/C (second compound 0.0949 µM, first compound 3.16 µM): 0.22%
- viability, T/C (second compound 0.0949 µM, first compound 10 µM): 0.22%
- viability, T/C (second compound 0.3 µM, first compound 0.0316 µM): 102%
- viability, T/C (second compound 0.3 µM, first compound 0.1 µM): 96.7%
- viability, T/C (second compound 0.3 µM, first compound 0.316 µM): 94.3%
- viability, T/C (second compound 0.3 µM, first compound 1 µM): 55.1%
- viability, T/C (second compound 0.3 µM, first compound 3.16 µM): 0.25%
- viability, T/C (second compound 0.3 µM, first compound 10 µM): 0.22%
